Results published in BindingDB's records for patent US20230348424 (Schrödinger, 2023).

What was measured:
[1] = biological target: T1, Son of sevenless homolog 1 [564-1049] (Human, UniProt Q07889); test: Surface Plasmon Resonance (SPR) SOS1 Binding AssaySurface Plasmon Resonance (SPR) SOS1 Binding Assay
T1 construct: 564-1049
T1 sequence (Q07889 whole entry): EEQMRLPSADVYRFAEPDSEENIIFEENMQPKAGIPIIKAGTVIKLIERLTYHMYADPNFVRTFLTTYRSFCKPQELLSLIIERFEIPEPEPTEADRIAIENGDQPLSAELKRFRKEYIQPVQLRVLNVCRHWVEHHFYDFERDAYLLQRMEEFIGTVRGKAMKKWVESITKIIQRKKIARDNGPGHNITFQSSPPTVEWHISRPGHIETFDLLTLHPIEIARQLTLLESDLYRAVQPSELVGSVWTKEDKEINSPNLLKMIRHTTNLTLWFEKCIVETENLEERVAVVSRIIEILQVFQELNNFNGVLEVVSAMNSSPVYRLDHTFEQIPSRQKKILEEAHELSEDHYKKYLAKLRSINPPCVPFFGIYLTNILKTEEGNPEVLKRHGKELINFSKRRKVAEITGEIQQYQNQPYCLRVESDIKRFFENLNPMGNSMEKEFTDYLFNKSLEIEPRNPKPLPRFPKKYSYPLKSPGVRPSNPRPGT
Protocol: Binding to SOS1 was measured using a SPR assay with purified recombinant human SOS1 substrate (res. 564-1049 with N-terminal Avi tag; purified and biotinylated based on Hillig, et al., Proc Natl Acad Sci USA (2019); 116(7):2551-2560). SPR measurements were performed on a Biacore 8K SPR instrument (GE Healthcare, Sweden). Assays were performed at 25° C. using Series S SA sensor chips pre-coated with streptavidin (GE Healthcare, Cat. BR100531). Biotinylated SOS1 diluted in sample buffer (20 mM Tris HCI, 150 mM NaCl, 1 mM DTT, 0.05% TWEEN 20, 1 mM MgCh, pH 8.0) was captured to one flow cell of the chip to about 3,000 resonance units (RU) using sample buffer supplemented with 5% DMSO as a running buffer. Serial dilutions of the assayed compounds in the running buffer at 100, 50 or 0.5 µM were injected for 60 s at a flow rate of 30 µL/min and association phases were recorded. Dissociation of the samples was monitored for 600 s. Data processing was performed using Biacore Insight Software (Biacore, GE Healthcare). Sensorgrams recorded on a SA flow cell without captured protein were subtracted from sensorgrams recorded on the SOS1 surface. Blank injections of running buffer were used for double referencing and solvent correction was applied to all sample sensorgrams to correct for buffer mismatches. KDS were estimated using a kinetic or steady state, where applicable, fitting model describing a reversible equilibrium with 1:1 binding between SOS1 and the compound.

[2] = biological target: T2, Son of sevenless homolog 1 [564-1049]/GTPase KRas [G12C] (UniProt Q07889); test: SOS1 KRas(G12C) FRET Assay
T2 construct: 564-1049
Protocol: A 2x KRAS working solution was prepared in an assay buffer containing 5 nM GST-KRAS G12C and 2 nM anti-GST-Eu(K) (Cisbio, Cat. 61GSTKLA) and pre-incubated for 15 minutes at 25° C. […] The final DMSO concentration is 0.5%. […] FRET signal was converted to percentage of protein-protein interaction using the following equation:%Inhibition=100%-C-N/P-N*100%C: signal with compound treatmentP: signal for positive control (DMSO)N: signal for negative control (no SOS1 added).

T2 sequence (P01116 whole entry G12C, one chain of several): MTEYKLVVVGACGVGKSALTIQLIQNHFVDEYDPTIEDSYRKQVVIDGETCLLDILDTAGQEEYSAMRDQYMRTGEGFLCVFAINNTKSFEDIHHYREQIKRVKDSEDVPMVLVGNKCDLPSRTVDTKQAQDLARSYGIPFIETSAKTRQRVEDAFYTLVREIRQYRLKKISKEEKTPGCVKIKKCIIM

SMILES	Kd [1]	IC50 [2]
Cc1c([C@@H](C)NC(=O)c2cn(C3CCOCC3)c(=O)cc2NC2CCN(C)CC2)cccc1C(F)(F)F [US20230348424, Example 1]	6 nM	
C[C@@H](NC(=O)c1cn(C23CC(C2)C3)c(=O)cc1N[C@H]1[C@@H]2CNC[C@@H]21)c1cccc(C(F)F)c1F [US20230348424, Example 89]	12 nM	
C[C@@H](NC(=O)c1cn(C2(C(F)(F)F)CC2)c(=O)cc1N[C@H]1[C@@H]2CN(C)C[C@@H]21)c1cccc(C(F)(F)F)c1F [US20230348424, Example 120]	24 nM	35.7 nM
